Values joined by “and” are separate entries in the source; they are usually repeats but may differ in a detail not shown here. Identical values can stand only once.
Columns and labels:
[1] = test system: desmosines; test: Skin desmosine content in diabetic rats; assay type: in vivo, rat
Experimental: (§1) For desmosine analysis, the biopsy of tissue is fixated using paraffin. The paraffin is removed from the […] in the microfuge tubes by incubating for 10 minutes with 500 μL of xylene. Five microliters of water is added, the tubes gently vortexed and then microfuged. The xylene is carefully removed, 400 μL of 6N HCl is added to the protein pellet, and the samples hydrolyzed for 24 hours at 100° C. The acid is evaporated in a savant vacuum centrifuge and the hydrolysate redissolved in 400 μL distilled water. The samples are vortexed and microfuged and 20 μL removed from each tube for desmosine analysis by radioimmunoassay. Protein content is determined in 2 μL of the hydrolysate by slightly modifying the ninhydrin method. A stock ninhydrin solution is made by dissolving 10 g of ninhydrin in 375 mL of ethylene glycol and 125 mL of 4N sodium acetate buffer, pH 5.5. For the working solution, 250 μL of 10% stannous chloride suspension is added for every 10 mL of the ninhydrin stock solution. Hydroxyproline is determined in 50 μL of hydrolysate by amino acid analysis.
The production of desmosines, a precursor to elastin, can be regulated by compounds that affect the Amadorase pathway. Skin from normal, diabetic, and animals treated with 1-deoxy-1-morpholinofructose were excised and for desmosine content as described in example 29.

[2] = test system: desmosines; test: Aorta desmosine levels in diabetic rats; assay type: in vivo, rat
Experimental: as §1

[3] = biological target: T1, Calf skin collagen type I (Bos taurus, UniProt P02453+P02465); test: 3DG-induced collagen crosslinking and inhibition by arginine (CNBr digest, SDS-PAGE); assay type: biochemical; conditions: 37° C., 24 hours
T1 construct: Calf skin collagen type I (1.3 mg; Sigma); purchased Sigma; host or cells: calf skin
Experimental: Collagen type I was treated with 3DG in the-presence or absence of arginine. The samples were subjected to cyanogen bromide (CNBr) digestion, electrophoresed on a 16.5% SDS Tris-tricine gel, and then the gels were processed using silver stain techniques to visualize the proteins. Lane 1 contains molecular weight marker standards. Lanes 2 and 5 contain 10 and 20 μl of the collagen mixture following CNBr digestion. Lanes 3 and 6 contain the collagen mixture treated with 3DG and then digested with CNBr, and loaded at 10 and 20 μl, respectively. Lanes 4 and 7 contain the mixture of collagen incubated with 5 mM 3DG and 10 mM arginine and then digested with CNBr, and loaded at 10 and 20 μl, respectively.
Collagen I was incubated in the presence or absence of 3DG in vitro. Calf skin collagen type I (1.3 mg; Sigma) was incubated in 20 mM Na-phosphate buffer, pH 7.25, either alone, with 5 mM 3DG, or with 5 mM 3DG plus 10 mM arginine, in a total volume of 1 ml at 37° C. for 24 hours and then frozen and lyophilized. The residue was dissolved in 0.5 ml of 70% formic acid and cyanogen bromide was added (20:1, w/w). This solution was incubated at 30° C. for 18 hours. […] The extent of collagen crosslinking was determined by applying equal volumes of sample and analyzing by SDS-PAGE electrophoresis (16.5% Tris-tricine gel), as determined by the effects of 3DG on the migration of collagen.

[4] = biological target: Amadorase; conditions: read-out: concentration inhibiting Amadorase by 50%; purified Amadorase, 37° C., 15 minutes
Experimental: Experiments were performed to test the effect of copper on the activity of the Amadorase enzyme in vitro. Using methods described elsewhere, increasing amounts of copper in the form of CuSO4, was added to an in vitro assay. Purified Amadorase was added to the reaction, incubated at 37° C. for 15 minutes, and the amount of FL3P measured. The graph depicted in FIG. 20 represents percent Amadorase activity as a function of copper concentration.

[5] = test system: Amadorase; test: In vitro Amadorase-dependent production of 3DG from FL; assay type: biochemical; conditions: FL 2.6 mM
[6] = Urinary FL, 3DG and 3DF in humans after ingestion of glycated protein (2 g FL); assay type: in vivo, human; conditions: seven volunteers, 2 gram dose of fructoselysine as glycated protein food
Experimental: 260 g of casein, 120 g of glucose and 720 ml of water were mixed to give a homogeneous mixture. This mixture was transferred to a metal plate and heated at 65° C. for 68 hours. The resulting cake was then pulverized to a coarse powder. This powder contained 60% protein as determined by the Kjeldahl procedure.
One gram of the powder prepared as in step a., above, was hydrolyzed by refluxing with 6N HCl for 20 hours. The resulting solution was adjusted to pH 1.8 with NaOH solution and diluted to 100 ml. The fructoselysine content was measured on an amino acid analyzer as furosine, the product obtained from acid hydrolysis of fructoselysine. In this way, it was determined that the cake contained 5.5% (w/w) fructoselysine. […]
FL was measured by HPLC with a Waters 996 diode Array using a Waters C18 Free Amino Acid column at […] and a gradient elution system of acetonitrile-methyl alcohol-water (45:15:40) into acetonitrile-sodium acetate-water (6:2:92) at 1 ml/min. Quantitation employed an internal standard of meglumine. 3DF was measured by HPLC after deionization of the sample. […] Quantitation was performed from standard curves obtained daily with synthetic 3DF.
3DG was measured by GC-MS after deionization of the sample. […] Quantitation of 3DG employed selected ion monitoring using an internal standard of U-13C-3DG.

[7] = test system: human dermal fibroblasts acquired from a patient with scleroderma; test: Collagen 1A1 mRNA by Northern blot in scleroderma fibroblasts; assay type: cell-based; conditions: 5 mM, 72 hours, normalized to GAPDH mRNA
Experimental: In these experiments 5 mM FL was added to cultured human dermal fibroblasts acquired from a patient with scleroderma. After 72 hours, cells were collected and mRNA isolated. Equal amounts of each mRNA preparation was separated by electrophoresis and the amount of collagen 1A1 mRNA detected by Northern blot using a radioactive probe to the collagen 1A1 mRNA as shown in FIG. 19. A phosphoimager was used to quantify the amount of collagen type 1 mRNA. A radioactive probe to the GAPDH mRNA was used as a control to normalize the level of collagen 1A1 mRNA in each sample. The level of collagen 1A1 RNA was decreased by 40%.

[8] = test system: 3-deoxyglucosone; test: Reduction of urinary and plasma 3-deoxyglucosone by polyollysines and meglumine; assay type: in vivo, rat; conditions: for reduction of plasma 3-deoxyglucosone / average reduction of urinary 3-deoxyglucosone: rats, 10 μmols i.p.; for reduction of plasma 3-deoxyglucosone: plasma at end of 3 h; for average reduction of urinary 3-deoxyglucosone: urine 3 h before vs 3 h after, normalized to creatinine
Experimental: Urine was collected from six rats for three hours. A plasma sample was also obtained. The animals were then given 10 μmols of either sorbitollysine, mannitollysine, or galactitollysine by intraperitoneal injection. Urine was collected for another three hours, and a plasma sample obtained at the end of the three hours. 3-deoxyglucosone was measured in the samples, as described in Example 5, below, and variable volumes were normalized to creatinine. The average reduction of urinary 3-deoxyglucosone was 50% by sorbitollysine, 35% by mannitollysine and 35% by galactitollysine. Plasma 3-deoxyglucosone was reduced 40% by sorbitollysine, 58% by mannitollysine and 50% by galactitollysine.
Three rats were treated as in b), immediately above, except meglumine (100 μmols) was injected intraperitoneally instead of the above-mentioned lysine derivatives. Three hours after the injection the average 3-deoxyglucosone concentrations in the urine were decreased 42%.
3DG was measured by GC-MS after deionization of the sample. 3DG was derivatized with a 10-fold excess of diaminonaphthalene in PBS. Ethyl acetate extraction gave a salt free fraction which was converted to the trimethyl silyl ethers with Tri-Sil (Pierce). Analysis was performed on a Hewlett-Packard 5890 selected ion monitoring GC-MS system. GC was performed on a fused silica capillary column (DB-5,25 mx.25 mm) using the following temperature program: injector port 250° C., initial column temperature 150° C. which was held for 1 minute, then increased to 290° C. at 16° C./minute and held for 15 minutes. Quantitation of 3DG employed selected ion monitoring using an internal standard of U-13C-3DG.

[9] = test system: desmosines; test: Lung desmosine levels in STZ-diabetic mice; assay type: in vivo; conditions: regardless of whether diabetic
Experimental: as §1
Lung tissues from mice made diabetic with STZ was excised and analyzed for desmosine levels. The levels of desmosines in diabetic mice were greater than non-diabetic mice.

[10] = individual treated diabetic rats

T1 sequence (P02453 162-1217 limits assumed): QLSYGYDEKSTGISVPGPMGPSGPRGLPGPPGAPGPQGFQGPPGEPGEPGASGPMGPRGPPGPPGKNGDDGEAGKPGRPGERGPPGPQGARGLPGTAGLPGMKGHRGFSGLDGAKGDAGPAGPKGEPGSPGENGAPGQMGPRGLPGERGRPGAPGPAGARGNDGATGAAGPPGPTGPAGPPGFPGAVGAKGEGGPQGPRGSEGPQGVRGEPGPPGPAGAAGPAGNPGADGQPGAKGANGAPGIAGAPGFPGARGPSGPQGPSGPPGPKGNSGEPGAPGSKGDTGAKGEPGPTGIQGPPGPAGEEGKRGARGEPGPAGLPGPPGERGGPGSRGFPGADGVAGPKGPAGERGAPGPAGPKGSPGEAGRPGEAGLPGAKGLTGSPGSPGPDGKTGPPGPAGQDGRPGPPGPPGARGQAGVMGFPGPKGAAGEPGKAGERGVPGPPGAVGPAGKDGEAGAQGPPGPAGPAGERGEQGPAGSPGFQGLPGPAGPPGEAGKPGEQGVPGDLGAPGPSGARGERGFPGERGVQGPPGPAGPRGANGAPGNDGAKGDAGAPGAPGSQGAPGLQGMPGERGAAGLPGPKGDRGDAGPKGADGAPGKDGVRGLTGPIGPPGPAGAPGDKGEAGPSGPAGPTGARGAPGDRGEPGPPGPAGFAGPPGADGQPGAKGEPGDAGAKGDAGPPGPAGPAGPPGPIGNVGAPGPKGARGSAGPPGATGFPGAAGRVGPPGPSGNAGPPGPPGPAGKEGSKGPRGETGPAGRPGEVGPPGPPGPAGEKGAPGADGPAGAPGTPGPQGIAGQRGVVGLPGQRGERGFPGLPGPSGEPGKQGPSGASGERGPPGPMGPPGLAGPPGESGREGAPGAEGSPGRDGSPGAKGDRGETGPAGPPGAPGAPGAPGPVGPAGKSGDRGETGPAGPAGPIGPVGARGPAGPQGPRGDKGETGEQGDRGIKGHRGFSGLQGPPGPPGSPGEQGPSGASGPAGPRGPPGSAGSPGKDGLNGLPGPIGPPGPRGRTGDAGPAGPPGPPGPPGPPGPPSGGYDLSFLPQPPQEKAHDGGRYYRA
T1 sequence (P02465 80-1117 limits assumed): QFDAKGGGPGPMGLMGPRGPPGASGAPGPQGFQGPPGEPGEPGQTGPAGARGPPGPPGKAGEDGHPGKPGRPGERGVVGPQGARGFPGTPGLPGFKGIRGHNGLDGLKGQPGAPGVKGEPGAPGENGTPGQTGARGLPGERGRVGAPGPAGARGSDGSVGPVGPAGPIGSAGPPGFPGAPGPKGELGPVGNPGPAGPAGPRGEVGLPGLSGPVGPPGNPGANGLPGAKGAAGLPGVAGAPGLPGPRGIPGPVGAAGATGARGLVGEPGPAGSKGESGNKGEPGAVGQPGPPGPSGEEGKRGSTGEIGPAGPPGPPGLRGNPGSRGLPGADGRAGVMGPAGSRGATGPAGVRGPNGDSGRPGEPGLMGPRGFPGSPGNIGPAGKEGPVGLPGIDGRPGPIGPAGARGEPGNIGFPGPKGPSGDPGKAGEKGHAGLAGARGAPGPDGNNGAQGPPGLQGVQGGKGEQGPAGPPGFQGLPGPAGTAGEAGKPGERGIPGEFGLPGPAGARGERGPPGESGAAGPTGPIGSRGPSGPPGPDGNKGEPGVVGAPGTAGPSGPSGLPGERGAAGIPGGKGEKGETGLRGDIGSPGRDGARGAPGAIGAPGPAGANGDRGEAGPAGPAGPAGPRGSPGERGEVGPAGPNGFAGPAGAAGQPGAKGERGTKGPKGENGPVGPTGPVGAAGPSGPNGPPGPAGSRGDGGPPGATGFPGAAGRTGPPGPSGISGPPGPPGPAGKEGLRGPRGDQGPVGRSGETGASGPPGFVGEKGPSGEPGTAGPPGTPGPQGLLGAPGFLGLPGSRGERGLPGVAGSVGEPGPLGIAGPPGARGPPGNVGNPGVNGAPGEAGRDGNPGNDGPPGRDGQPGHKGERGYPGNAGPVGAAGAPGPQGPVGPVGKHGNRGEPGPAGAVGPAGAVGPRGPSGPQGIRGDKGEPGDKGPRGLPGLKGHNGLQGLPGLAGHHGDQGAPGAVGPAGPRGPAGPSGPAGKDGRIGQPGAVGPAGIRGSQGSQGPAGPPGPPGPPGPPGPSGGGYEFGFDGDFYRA

O=C(CN1CCOCC1)[C@@H](O)[C@H](O)[C@H](O)CO [1-deoxy-1-morpholinofructose]
skin desmosine levels compared to untreated diabetic animals ([1]; diabetic animals, P=0.00242): lower levels of desmosines | skin desmosine content pmD/mgP [1, 10]: 63.1 pmD/mgP and 67.9 pmD/mgP (2×) and 88.1 pmD/mgP and 64.3 pmD/mgP and 65.8 pmD/mgP and 65.1 pmD/mgP and 66.8 pmD/mgP | aorta desmosine levels compared to untreated diabetic rats ([2]; diabetic rats, P=0.104): decrease in desmosine levels | aorta desmosine pmD/mgP [2, 10]: 3809 pmD/mgP and 2558 pmD/mgP and 2842 pmD/mgP and 2906 pmD/mgP and 3633 pmD/mgP and 3681 pmD/mgP

O=CC(=O)C[C@H](O)[C@H](O)CO [3DG, 3-deoxyglucosone, reference compound]
effect on collagen migration (crosslinking) ([3]; collagen type I with 5 mM 3DG): caused the collagen to migrate as if it had a higher molecular weight

O=S(=O)([O-])[O-].[Cu+2] [Copper sulfate]
IC50 [4]: ~1 µM

N=C(N)NCCC[C@H](N)C(=O)O [arginine]
inhibition of 3DG induced collagen crosslinking ([3]; collagen type I with 5 mM 3DG plus 10 mM arginine): fewer high molecular bands

N[C@@H](CCCCNCC(=O)[C@@H](O)[C@H](O)[C@H](O)CO)C(=O)O [fructoselysine]
3DG (mM) after 24 hours ([5]; reaction 1: Amadorase +, ATP +): 1.58 mM | FL3P (mM) after 24 hours ([5]; reaction 1: Amadorase +, ATP +): 0.2 mM | 3DG (mM) after 24 hours ([5]; reaction 2: Amadorase +, ATP −): 0.08 mM | FL3P (mM) after 24 hours ([5]; reaction 2: Amadorase +, ATP −): 0.0 mM | 3DG (mM) after 24 hours ([5]; reaction 3: Amadorase −, ATP +): 0.09 mM | FL3P (mM) after 24 hours ([5]; reaction 3: Amadorase −, ATP +): 0.0 mM | 3DG (mM) after 24 hours ([5]; reaction 4: Amadorase −, ATP −): 0.08 mM | FL3P (mM) after 24 hours ([5]; reaction 4: Amadorase −, ATP −): 0.0 mM | time of peak 3DF excretion in urine after FL bolus [6]: about 4 hours | decrease of level of collagen 1A1 RNA [7]: 40%

N[C@@H](CCCCNC[C@H](O)[C@@H](O)[C@@H](O)[C@H](O)CO)C(=O)O [galactitollysine]
reduction of plasma 3-deoxyglucosone [8]: 50% | average reduction of urinary 3-deoxyglucosone [8]: 35%

N[C@@H](CCCCNC[C@@H](O)[C@@H](O)[C@H](O)[C@H](O)CO)C(=O)O [mannitollysine]
reduction of plasma 3-deoxyglucosone [8]: 58% | average reduction of urinary 3-deoxyglucosone [8]: 35%

CNC[C@H](O)[C@@H](O)[C@H](O)[C@H](O)CO [meglumine, reference compound]
lung desmosine levels compared to untreated mice [9]: less than mice not so treated | decrease of average 3-deoxyglucosone concentration in urine ([8]; three rats, 100 μmols i.p., three hours after injection): 42%

N[C@@H](CCCCNC[C@H](O)[C@@H](O)[C@H](O)[C@H](O)CO)C(=O)O [sorbitollysine]
reduction of plasma 3-deoxyglucosone [8]: 40% | average reduction of urinary 3-deoxyglucosone [8]: 50%

Reference: patent publication US20070065443A1, “Fructoseamine 3 kinase and the formation of collagen and elastin” (priority 2004, published 2007)
